These results are taken from patent US20110111021A1, “PHARMACEUTICAL PREPARATION” (HANALL BIOPHARMA CO., LTD., priority 2008, published 2011).

Data set [1] deals with hepatic enzyme cytochrome P450. The note with it: cited from earlier work.
The nature of data set [2]: Pharmacokinetic evaluation of aliskiren and atorvastatin in rats (animal test). It counts as in vivo. The note with it: SD rats, oral, once a day for 8 days. As to the method: As an experiment to confirm the effects of the invention, an animal test was carried out as follows, in order to confirm the effects of conventional combined administration and inventive chronotherapeutic administration of pharmacologically active ingredients, aliskiren as a renin inhibitor and atorvastatin as an HMG-CoA reductase inhibitor.
1) Title: Pharmacokinetic evaluation of aliskiren and atorvastatin in a hypertensive animal model.
2) Object: It is intended to verify through the chronotherapeutic administration-based pharmacokinetic changes the fact that the problem of pharmacokinetic interaction between different drugs upon simultaneous administration of drug groups metabolized by the same hepatic enzyme can be solved by controlled release of the drugs.
1. Test group: Animals were grouped into two groups (n=6), a group receiving simultaneous administration of aliskiren/atorvastatin, and a group receiving chronotherapeutic administration of aliskiren/atorvastatin.
2. Administration route: Forced intragastric administration via an oral sonde.
3. […]
5. Administration volume: 5 mL/kg based on the body weight of animals measured on the day of administration. […]

The conditions of data set [3]: cited from earlier work.
In data set [4] the target is cytochrome P450 3A4 (Homo sapiens, UniProt P08684). The note with it: in vitro experiments; cited from earlier work.
Sequence of cytochrome P450 3A4 (P08684 whole entry, species assumed): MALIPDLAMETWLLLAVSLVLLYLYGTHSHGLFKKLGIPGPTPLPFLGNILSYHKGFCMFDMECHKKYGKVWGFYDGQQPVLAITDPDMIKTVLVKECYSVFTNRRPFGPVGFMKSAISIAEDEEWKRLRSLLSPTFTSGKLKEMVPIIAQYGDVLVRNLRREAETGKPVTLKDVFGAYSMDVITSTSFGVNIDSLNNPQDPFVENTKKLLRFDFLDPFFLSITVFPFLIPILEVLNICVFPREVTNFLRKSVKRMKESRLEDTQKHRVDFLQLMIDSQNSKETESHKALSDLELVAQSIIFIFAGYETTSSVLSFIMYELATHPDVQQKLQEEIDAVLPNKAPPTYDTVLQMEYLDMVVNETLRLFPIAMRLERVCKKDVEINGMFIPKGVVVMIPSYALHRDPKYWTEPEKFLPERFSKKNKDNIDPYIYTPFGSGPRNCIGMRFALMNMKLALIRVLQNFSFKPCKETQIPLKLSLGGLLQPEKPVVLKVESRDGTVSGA
The conditions of data set [5]: concurrent administration of aliskiren and atorvastatin; cited from earlier work.

SMILES strings stand for the structures. Bounds are passed on as bounds.

On to `COCCCOc1cc(C[C@@H](C[C@H](N)[C@@H](O)C[C@H](C(=O)NCC(C)(C)C(N)=O)C(C)C)C(C)C)ccc1OC` [aliskiren, 2(S),4(S),5(S),7(S)-N-(3-amino-2,2-dimethyl-3-oxopropyl)-2,7-di(1-methylethyl)-4-hydroxy-5-amino-8-[4-methoxy-3-(3-methoxy-propoxy)phenyl]-octanamide], for which the “inhibition or induction of hepatic enzyme cytochrome P450” value in data set [1] is reported as “does not inhibit or induce”. For the same molecule, the “blood level of aliskiren compared to the single administration group” value in data set [2] (aliskiren 300 mg/kg and atorvastatin 80 mg/kg simultaneously) is listed as “significant increase”. The “blood aliskiren level compared to the single administration group” value in data set [2] (aliskiren 300 mg/kg given 4 hours after atorvastatin 80 mg/kg (chronotherapeutic)) is listed as “equivalent to that of the single administration group”. In data set [3] (in vivo), the bioavailability is listed as at most 2% and the half-life is 24 h. Further, in data set [3] (when high-fat diet is ingested), the decrease in bioavailability is reported as 71% and the “decrease in peak blood level” value is recorded as 85%. Moreover, the “metabolism by cytochrome P450 3A4” value in data set [4] is recorded as “metabolized by cytochrome P450 3A4”. The “increase in blood aliskiren level” value in data set [5] is recorded as 50%.
As for `COc1ccc(C[C@H](NC(=O)CC(C)(C)N)C(=O)N[C@@H](Cc2cnc[nH]2)C(=O)N[C@@H](CC2CCCCC2)[C@@H](O)[C@@H](O)CC(C)C)cc1` [enalkiren], in data set [3] (in vivo), the “bioavailability (in words)” value is “low” and the “half-life (in words)” value is listed as “short”.
For the molecule `CC(C)(C)S(=O)(=O)C[C@@H](Cc1ccccc1)C(=O)N[C@@H](Cc1cnc[nH]1)C(=O)N[C@@H](CC1CCCCC1)[C@@H](O)[C@@H](O)C1CC1` [remikiren], in data set [3] (in vivo), the “bioavailability (in words)” value was “low” and the “half-life (in words)” value is listed as “short”.
Regarding `CC(C)C[C@H](O)[C@H](O)[C@H](CC1CCCCC1)NC(=O)[C@H](Cc1cscn1)NC(=O)[C@H](Cc1ccccc1)CS(=O)(=O)N1CCN(C)CC1` [zankiren], in data set [3] (in vivo), the “bioavailability (in words)” value is on record as “low” and the “half-life (in words)” value is recorded as “short”.
